# Experimental data as given in patent publication US11981953B2, “Method to screen compounds for antifungal activity and pharmaceutical compositions and methods to treat fungal diseases by inhibiting spore germination” (WISCONSIN ALUMNI RESEARCH FOUNDATION, priority 2018, dated 2024).
# Counter-ions that a name gives are not always drawn. Like-named read-outs stand apart in the source and are kept apart here.
# Columns and labels:
# Format in all cases: cell-based
# [1] = tested on: Cryptococcus neoformans (JEC21); experiment: MIC/MFC experiments (EUCAST based), JEC21; details: for MIC / MFC: 48 h; for MFC: Cryptococcus neoformans; for Ability to inhibit yeast growth / replication in MIC and MFC testing: yeast strain not given, data not shown for non-inhibitors
# Description: (§1) All minimum inhibitory concentration (MIC) experiments were based on EUCAST methodology. […] After 6-hour incubation, yeast cells were washed in 1×PBS and quantified using a hemocytometer. […] Cryptococcus neoformans cells were incubated for 2 days at 30° C. while Candida albicans strains were incubated for 2 days at 35° C. OD600 readings were used to assess the MIC values for each drug. To determine minimum fungicidal concentrations (MFC) values, 3 μL per well were plated on YPD and allowed to grow for 2 days.
# [2] = tested on: Cryptococcus neoformans (H99); experiment: MIC/MFC experiments (EUCAST based), H99; details: 48 h; for MFC: Cryptococcus neoformans
# Description: as §1
# [3] = tested on: Candida albicans (SC5314); experiment: MIC/MFC experiments (EUCAST based), Candida albicans; details: SC5314, 48 h
# Description: as §1
# [4] = tested on: Aspergillus Fumigatus (AF293); experiment: Aspergillus fumigatus MIC on conidia; details: for MIC: Aspergillus fumigatus; for Ability to inhibit Aspergillus fumigatus: testing performed on conidia
# Description: Conidia at a final concentration of 2×10^4 cells were incubated in RPMI, 0.33 M MOPS, and 2% glucose at pH 7 at varying concentrations of inhibitors, with a final volume of 200 μL.
# [5] = tested on: Cryptococcus neoformans spores (JEC20 x JEC21); experiment: Quantitative germination assay (microfluidic devices, cell size and shape); details: for Inhibition of spore germination, antifungal drugs: concentration not given, bifonazole and econazole nitrate tested outside the microfluidic device, imaged at 0 and 16 hours; for Spore escape from inhibition (words): yeast population increase = escape; for Inhibition of spore germination: 16 hours; for Germicidal: plated on YPD after the 16-hour experiment
# Description: All germination assays are based on Barkal et al., 2016. Briefly, microfluidic devices were loaded with 1×10^5 spores, and at 0 hours, SD media with drug of interest, were added to the sample. Spores were allowed to germinated at 30° C. in a humidified chamber and cells were monitored every two (2) hours for 16 hours. Each assay was performed in two (2) individual wells with three (3) field of views acquired from each well. All images were analyzed as previously described based on cell shape and size. Population ratio of spores, intermediate, and yeast cells were determined. Error bars in plots are based on variation between all fields of view acquired. […] After the 16-hour experiment, samples were plated on YPD and allowed to grow at 30° C. to determine if drugs were completely germicidal or not based on lack of growth. If assays were unable to be performed in microfluidic devices, the […] spores were incubated in identical conditions outside of PDMS devices and only loaded into devices for image acquisition.
# [6] = tested on: Cryptococcus neoformans spore germination; experiment: High throughput nanoluciferase screen of spore germination (L1300 Selleck FDA-Approved Drug Library)
# Text: (§2) To identify inhibitors of Cryptococcus neoformans spore germination, a high throughput screen was developed that utilizes a nanoluciferase construct to monitor whether spores germinate in the presence of inhibitor. Briefly a protein luciferase construct was created resulting in a low luciferase signal for non-germinated spores and a high signal from germinated and replicating cells. The screen was coupled with OD600 readings to monitor the ability of compounds to inhibit yeast replication. The examples focused on FDA-approved drugs, as these drugs have the potential of being repurposed into antifungal therapeutics. To determine whether any FDA-approved drugs were able to inhibit Cryptococcus neoformans spore germination and yeast replication, the aforementioned high throughput screen was performed on the L1300 Selleck FDA-Approved Drug Library containing an array of 1108 compounds. This library of compounds is available commercially from Selleck Chemicals, 14408 W Sylvanfield Drive, Houston, Tex. 77014, USA.
# (§3) The screening was successful at identifying known antifungal drugs as inhibitors of yeast replication as indicated by an OD600 signal of less than 75% of the negative control (Table 2). For the purpose of these examples, antifungal drugs were defined as any FDA-approved drug used in the treatment of fungal infections. Of these 23 known antifungal drugs, only six (6) were identified as inhibitors of spore germination, indicated by a luciferase signal of less than 30% of the negative control.
# [7] = tested on: Cryptococcus neoformans yeast replication; details: signal relative to negative control
# Text: as §2, §3
# [8] = Table 4, yeast, 2 days at 30° C., OD600, read-out: MIC
# [9] = Table 4, plated on YPD, 2 days, read-out: MFC
# [10] = Table 4, 2 days at 35° C., OD600, read-out: MIC
# [11] = Table 4, conidia, lowest concentration with complete absence of germ tubes or hyphae, read-out: MIC
# [12] = Table 3, other FDA-approved drugs, signal relative to negative control
# [13] = Table 3, other FDA-approved drugs
# [14] = Table 5, yeast, 2 days at 30° C., OD600, read-out: MIC
# [15] = Table 5, plated on YPD, 2 days, read-out: MFC
# [16] = Table 5, 2 days at 35° C., OD600, read-out: MIC
# [17] = Table 5, conidia, lowest concentration with complete absence of germ tubes or hyphae, read-out: MIC
# [18] = Table 2, antifungal drugs, signal relative to negative control, less than 30% = inhibitor of germination
# [19] = Table 2, antifungal drugs, less than 75% = inhibitor of yeast replication
compound,measurement,setting,value
N=C(N)c1ccc(OCCCCCOc2ccc(C(=N)N)cc2)cc1 [Pentamidine isethionate],MIC,[1]; [8],1.56 mg/L
same,MFC,[1]; [9],3.13 mg/L
same,MIC,[2]; [8],6.25 mg/L
same,MFC,[2]; [9],6.25 mg/L
same,MIC,[3]; [10],50 mg/L
same,MFC,[3]; [9],50 mg/L
same,MIC,[4]; [11],> 100 mg/L
same,"Inhibition of spore germination, antifungal drugs",[5],able to successfully inhibit spore germination
same,Spore escape from inhibition (words),[5],"none of the ˜10,000 spores showed inherent resistance and escape from inhibition"
CO[C@H]1C[C@@H]2CC[C@@H](C)[C@@](O)(O2)C(=O)C(=O)N2CCCC[C@H]2C(=O)O[C@H]([C@H](C)C[C@@H]2CC[C@@H](OC(=O)C(C)(CO)CO)[C@H](OC)C2)CC(=O)[C@H](C)/C=C(\C)[C@@H](O)[C@@H](OC)C(=O)[C@H](C)C[C@H](C)/C=C/C=C/C=C/1C [Temsirolimus],Germination Percent Luciferase Signal,[6]; [12],21.3%
same,Replication Percent OD600,[7]; [13],59.2%
same,MIC,[1]; [14],6.25 mg/L
same,MFC,[1]; [15],6.25 mg/L
same,MIC,[2]; [14],6.25 mg/L
same,MFC,[2]; [15],6.25 mg/L
same,MIC,[3]; [16],1.56 mg/L
same,MFC,[3]; [15],1.56 mg/L
same,MIC,[4]; [17],> 100 mg/L
same,Inhibition of spore germination,[5]; 25 μg/mL,partially inhibit germination
same,Germicidal,[5]; 25 μg/mL,Neither temsirolimus nor disulfiram were germicidal
OC(CCN1CCCCC1)(c1ccccc1)C1CC2C=CC1C2 (centres unmarked) [Biperiden HCl],Germination Percent Luciferase Signal,[6]; [12],23.4%
same,Replication Percent OD600,[7]; [13],56.6%
same,Ability to inhibit yeast growth / replication in MIC and MFC testing,[1],unable to inhibit yeast growth
CCCCCCCCOc1ccccc1C(=O)Nc1ccc(C(=O)OCC[N+](C)(CC)CC)cc1 [Otilonium bromide],Germination Percent Luciferase Signal,[6]; [12],6.9%
same,Replication Percent OD600,[7]; [13],29.0%
same,MIC,[1]; [14],3.13 mg/L
same,MFC,[1]; [15],3.13 mg/L
same,MIC,[2]; [14],3.13 mg/L
same,MFC,[2]; [15],3.13 mg/L
same,MIC,[3]; [16],3.13 mg/L
same,MFC,[3]; [15],3.13 mg/L
same,MIC,[4]; [17],6.25 mg/L
same,Ability to inhibit Aspergillus fumigatus,[4],able to inhibit A. fumigatus
same,Inhibition of spore germination,[5]; 25 μg/mL,completely inhibit spore germination
same,Germicidal,[5]; 25 μg/mL,fully germicidal
Clc1ccc(COC(Cn2ccnc2)c2ccc(Cl)cc2Cl)cc1 (centres unmarked) [Econazole nitrate],Germination Percent Luciferase Signal,[6]; [18],16.1%
same,Replication Percent OD600,[7]; [19],33.1%
same,MIC,[1]; [8],< 0.78 mg/L
same,MFC,[1]; [9],6.25 mg/L
same,MIC,[2]; [8],< 0.78 mg/L
same,MFC,[2]; [9],6.25 mg/L
same,MIC,[3]; [10],6.25 mg/L
same,MFC,[3]; [9],12.5 mg/L
same,MIC,[4]; [11],3.13 mg/L
same,Ability to inhibit Aspergillus fumigatus,[4],able to inhibit its growth
same,"Inhibition of spore germination, antifungal drugs",[5],able to inhibit spore germination effectively
O=C(Nc1ccc([N+](=O)[O-])cc1Cl)c1cc(Cl)ccc1O [Niclosamide],Germination Percent Luciferase Signal,[6]; [12],7.8%
same,Replication Percent OD600,[7]; [13],43.4%
same,MIC,[1]; [14],< 0.78 mg/L
same,MFC,[1]; [15],1.56 mg/L
same,MIC,[2]; [14],1.56 mg/L
same,MFC,[2]; [15],> 100 mg/L
same,MIC,[3]; [16],> 100 mg/L
same,MFC,[3]; [15],> 100 mg/L
same,MIC,[4]; [17],> 100 mg/L
same,Inhibition of spore germination,[5]; 25 μg/mL,completely inhibit germination
same,Germicidal,[5]; 25 μg/mL,not fully germicidal
CCCCCCCCCCCCCCCC[n+]1ccccc1 [Cetylpyridinium chloride],Germination Percent Luciferase Signal,[6],4.2%
same,Replication Percent OD600,[7]; [13],31.9%
same,MFC,[1],< 0.78 mg/L
same,MFC,[2],< 0.78 mg/L
same,MFC,[3],3.13 mg/L
CO[C@H]1C[C@@H]2CC[C@@H](C)[C@@](O)(O2)C(=O)C(=O)N2CCCC[C@H]2C(=O)O[C@H]([C@H](C)C[C@@H]2CC[C@@H](OCCO)[C@H](OC)C2)CC(=O)[C@H](C)/C=C(\C)[C@@H](O)[C@@H](OC)C(=O)[C@H](C)C[C@H](C)/C=C/C=C/C=C/1C [Everolimus],Germination Percent Luciferase Signal,[6]; [12],15.7%
same,Replication Percent OD600,[7]; [13],67.7%
CCC(C)n1ncn(-c2ccc(N3CCN(c4ccc(OCC5COC(Cn6cncn6)(c6ccc(Cl)cc6Cl)O5)cc4)CC3)cc2)c1=O (centres unmarked) [Itraconazole],Germination Percent Luciferase Signal,[6]; [18],159.6%
same,Replication Percent OD600,[7]; [19],58.9%
Clc1ccc(C(Cn2ccnc2)OCc2c(Cl)cccc2Cl)c(Cl)c1 (centres unmarked) [Isoconazole nitrate],Germination Percent Luciferase Signal,[6]; [18],16.8%
same,Replication Percent OD600,[7]; [19],37.0%
CN(C/C=C/c1ccccc1)Cc1cccc2ccccc12 [Naftifine HCl],Germination Percent Luciferase Signal,[6]; [18],55.5%
same,Replication Percent OD600,[7]; [19],34.5%
Caspofungin acetate,Germination Percent Luciferase Signal,[6]; [18],89.7%
same,Replication Percent OD600,[7]; [19],48.5%
CC(C)(C)CC(C)(C)c1ccc(OCCOCC[N+](C)(C)Cc2ccccc2)cc1 [Benzethonium chloride],Germination Percent Luciferase Signal,[6],6.9%
same,Replication Percent OD600,[7]; [13],30.3%
CCN(CC)C(=S)SSC(=S)N(CC)CC [Disulfiram],Germination Percent Luciferase Signal,[6]; [12],22.7%
same,Replication Percent OD600,[7]; [13],65.6%
same,MIC,[1],3.13 mg/L
same,MFC,[1],3.13 mg/L
same,MIC,[2],6.25 mg/L
same,MFC,[2],6.25 mg/L
same,MFC,[3],12.5 mg/L
same,MIC,[3],6.25 mg/L
same,MIC,[4],25 mg/L
same,Stall in germination overall,[5]; 25 μg/mL,~2 h
CCCCC(CC)CNC(=N)NC(=N)NCCCCCCNC(=N)NC(=N)NCC(CC)CCCC (centres unmarked) [Alexidine HCl],Germination Percent Luciferase Signal,[6]; [12],4.6%
same,Replication Percent OD600,[7]; [13],29.6%
same,MIC,[1]; [14],< 0.78 mg/L
same,MFC,[1]; [15],< 0.78 mg/L
same,MIC,[2]; [14],< 0.78 mg/L
same,MFC,[2]; [15],< 0.78 mg/L
same,MIC,[3]; [16],< 0.78 mg/L
same,MFC,[3]; [15],< 0.78 mg/L
same,MIC,[4]; [17],< 0.78 mg/L
same,Ability to inhibit Aspergillus fumigatus,[4],extremely potent
same,Inhibition of spore germination,[5]; 25 μg/mL,completely inhibit spore germination
same,Germicidal,[5]; 25 μg/mL,fully germicidal
OC(Cn1cncn1)(Cn1cncn1)c1ccc(F)cc1F [Fluconazole],Germination Percent Luciferase Signal,[6]; [18],84.0%
same,Replication Percent OD600,[7]; [19],72.2%
O=C1[C@H](CC[C@H](O)c2ccc(F)cc2)[C@@H](c2ccc(O)cc2)N1c1ccc(F)cc1 [Ezetimibe],Germination Percent Luciferase Signal,[6]; [12],22.0%
same,Replication Percent OD600,[7]; [13],51.3%
same,Ability to inhibit yeast growth / replication in MIC and MFC testing,[1],unable to inhibit yeast growth
Clc1ccc(COC(Cn2ccnc2)c2ccc(Cl)cc2Cl)c(Cl)c1 (centres unmarked) [Miconazole nitrate],Germination Percent Luciferase Signal,[6]; [18],25.5%
same,Replication Percent OD600,[7]; [19],38.2%
CN(Cc1ccc(C(C)(C)C)cc1)Cc1cccc2ccccc12 [Butenafine HCl],Germination Percent Luciferase Signal,[6]; [18],57.5%
same,Replication Percent OD600,[7]; [19],32.9%
Clc1ccc(C(Cn2ccnc2)OCc2ccsc2Cl)c(Cl)c1 (centres unmarked) [Tioconazoie],Germination Percent Luciferase Signal,[6]; [18],25.0%
same,Replication Percent OD600,[7]; [19],36.8%
c1ccc(-c2ccc(C(c3ccccc3)n3ccnc3)cc2)cc1 (centres unmarked) [Bifonazole],Germination Percent Luciferase Signal,[6]; [18],13.6%
same,Replication Percent OD600,[7]; [19],33.4%
same,MIC,[1]; [8],6.25 mg/L
same,MFC,[1]; [9],6.25 mg/L
same,MIC,[2]; [8],6.25 mg/L
same,MFC,[2]; [9],> 100 mg/L
same,MIC,[3]; [10],> 100 mg/L
same,MFC,[3]; [9],> 100 mg/L
same,MIC,[4]; [11],> 100 mg/L
same,Ability to inhibit Aspergillus fumigatus,[4],unable to inhibit
same,"Inhibition of spore germination, antifungal drugs",[5],able to inhibit spore germination effectively
same,Spore escape from inhibition (words),[5],spore escape apparent
